Measured values taken from ChEMBL document CHEMBL1201862, “PubChem BioAssay data set” (2004).
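Cultured in 96-well plates, cells were exposed to test compound for 48 hours across five concentrations. GI50 is the concentration that inhibits growth by half.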 Activity calls are given as the source filed them. Rule as the data show it: active = GI50 up to about 1.1 µM and inactive = higher.

Columns and labels:
Test in all cases: NCI anticancer screen, dose series, 48 h
[1] = tested on: 786-0
[2] = tested on: A498
[3] = tested on: A549
[4] = tested on: ACHN
[5] = tested on: BT-549
[6] = tested on: CAKI-1
[7] = tested on: CCRF-CEM
[8] = tested on: COLO 205
[9] = tested on: DU-145
[10] = tested on: EKVX
[11] = tested on: HCC 2998
[12] = tested on: HCT-116
[13] = tested on: HCT-15
[14] = tested on: HL-60
[15] = tested on: HOP-92
[16] = tested on: IGROV-1
[17] = tested on: K562
[18] = tested on: KM12
[19] = tested on: LOX IMVI
[20] = tested on: M14
[21] = tested on: MCF7
[22] = tested on: MDA-MB-231
[23] = tested on: MDA-MB-435
[24] = tested on: MDA-N
[25] = tested on: MOLT-4
[26] = tested on: Malme-3M
[27] = tested on: NCI-H226
[28] = tested on: NCI-H23
[29] = tested on: NCI-H460
[30] = tested on: NCI-H522
[31] = tested on: NCI/ADR-RES
[32] = tested on: OVCAR-3
[33] = tested on: OVCAR-4
[34] = tested on: OVCAR-5
[35] = tested on: OVCAR-8
[36] = tested on: PC-3
[37] = tested on: RPMI-8226
[38] = tested on: RXF 393
[39] = tested on: SF-295
[40] = tested on: SF-539
[41] = tested on: SK-MEL-28
[42] = tested on: SK-MEL-2
[43] = tested on: SK-MEL-5
[44] = tested on: SK-OV-3
[45] = tested on: SN12C
[46] = tested on: SNB-19
[47] = tested on: SNB-75
[48] = tested on: SR
[49] = tested on: SW-620
[50] = tested on: TK-10
[51] = tested on: U-251
[52] = tested on: UACC-257
[53] = tested on: UACC-62
[54] = tested on: UO-31
[55] = tested on: HOP-62
[56] = tested on: HT-29
[57] = tested on: Hs-578T
[58] = tested on: SF-268

SMILES: COC(=O)CC(CNC(=O)OCc1ccccc1)OCc1ccc(OC)cc1 (stereo unspecified)
- GI50 [1]: > 100 µM (inactive)
- GI50 [2]: > 100 µM (inactive)
- GI50 [3]: > 100 µM (inactive)
- GI50 [4]: > 100 µM (inactive)
- GI50 [5]: 34 µM (inactive)
- GI50 [6]: > 100 µM (inactive)
- GI50 [7]: > 100 µM (inactive)
- GI50 [8]: > 100 µM (inactive)
- GI50 [9]: > 100 µM (inactive)
- GI50 [10]: > 100 µM (inactive)
- GI50 [11]: > 100 µM (inactive)
- GI50 [12]: > 100 µM (inactive)
- GI50 [13]: > 100 µM
- GI50 [14]: > 100 µM (inactive)
- GI50 [15]: > 100 µM (inactive)
- GI50 [16]: > 100 µM (inactive)
- GI50 [17]: > 100 µM (inactive)
- GI50 [18]: > 100 µM (inactive)
- GI50 [19]: > 100 µM (inactive)
- GI50 [20]: > 100 µM (inactive)
- GI50 [21]: > 100 µM (inactive)
- GI50 [22]: > 100 µM (inactive)
- GI50 [23]: > 100 µM (inactive)
- GI50 [24]: > 100 µM (inactive)
- GI50 [25]: > 100 µM (inactive)
- GI50 [26]: > 100 µM (inactive)
- GI50 [27]: 66.2 µM (inactive)
- GI50 [28]: 67.5 µM (inactive)
- GI50 [29]: > 100 µM (inactive)
- GI50 [30]: > 100 µM (inactive)
- GI50 [31]: > 100 µM (inactive)
- GI50 [32]: > 100 µM (inactive)
- GI50 [33]: 88.7 µM (inactive)
- GI50 [34]: > 100 µM (inactive)
- GI50 [35]: > 100 µM (inactive)
- GI50 [36]: 99.5 µM (inactive)
- GI50 [37]: > 100 µM (inactive)
- GI50 [38]: > 100 µM (inactive)
- GI50 [39]: > 100 µM (inactive)
- GI50 [40]: > 100 µM (inactive)
- GI50 [41]: > 100 µM (inactive)
- GI50 [42]: > 100 µM (inactive)
- GI50 [43]: > 100 µM (inactive)
- GI50 [44]: > 100 µM (inactive)
- GI50 [45]: > 100 µM (inactive)
- GI50 [46]: > 100 µM (inactive)
- GI50 [47]: > 100 µM (inactive)
- GI50 [48]: > 100 µM (inactive)
- GI50 [49]: > 100 µM (inactive)
- GI50 [50]: > 100 µM (inactive)
- GI50 [51]: > 100 µM (inactive)
- GI50 [52]: > 100 µM (inactive)
- GI50 [53]: > 100 µM (inactive)
- GI50 [54]: 50.6 µM (inactive)

SMILES: COc1ccccc1/C=C1\NC(=S)N(/C=C2\C(=O)Oc3ccccc3C2=O)C1=O
- GI50 [1]: 52.5 µM (inactive)
- GI50 [3]: 51.6 µM (inactive)
- GI50 [4]: 55.6 µM (inactive)
- GI50 [5]: 21.9 µM (inactive)
- GI50 [6]: > 100 µM (inactive)
- GI50 [7]: 23.4 µM (inactive)
- GI50 [8]: 45.3 µM (inactive)
- GI50 [9]: 21.1 µM (inactive)
- GI50 [10]: 16.9 µM (inactive)
- GI50 [11]: 53.7 µM (inactive)
- GI50 [12]: 14.2 µM (inactive)
- GI50 [13]: 32.2 µM
- GI50 [14]: 9.84 µM (inactive)
- GI50 [55]: > 100 µM (inactive)
- GI50 [15]: 7.76 µM (inactive)
- GI50 [56]: 43.5 µM (inactive)
- GI50 [57]: > 100 µM (inactive)
- GI50 [16]: 26.6 µM (inactive)
- GI50 [18]: 47 µM (inactive)
- GI50 [19]: 60.5 µM (inactive)
- GI50 [20]: 64.1 µM (inactive)
- GI50 [21]: 71.4 µM (inactive)
- GI50 [22]: 40.7 µM (inactive)
- GI50 [23]: 35.2 µM (inactive)
- GI50 [25]: 11 µM (inactive)
- GI50 [27]: 14.6 µM (inactive)
- GI50 [28]: 35.9 µM (inactive)
- GI50 [29]: 41.4 µM (inactive)
- GI50 [30]: 39.4 µM (inactive)
- GI50 [31]: 24.6 µM (inactive)
- GI50 [32]: 32.1 µM (inactive)
- GI50 [33]: 24.9 µM (inactive)
- GI50 [34]: > 100 µM (inactive)
- GI50 [35]: 36.6 µM (inactive)
- GI50 [36]: 44.2 µM (inactive)
- GI50 [38]: 38.5 µM (inactive)
- GI50 [58]: 98.6 µM (inactive)
- GI50 [39]: 45.2 µM (inactive)
- GI50 [40]: 25.5 µM (inactive)
- GI50 [41]: 51.5 µM (inactive)
- GI50 [42]: 62.1 µM (inactive)
- GI50 [43]: 23.9 µM (inactive)
- GI50 [44]: 80.4 µM (inactive)
- GI50 [45]: > 100 µM (inactive)
- GI50 [46]: 38.2 µM (inactive)
- GI50 [47]: 30.1 µM (inactive)
- GI50 [49]: 53.2 µM (inactive)
- GI50 [50]: 33.5 µM (inactive)
- GI50 [51]: 23.2 µM (inactive)
- GI50 [52]: 42.4 µM (inactive)
- GI50 [53]: 23.3 µM (inactive)
- GI50 [54]: 21.2 µM (inactive)
